Measured values: patent US20080119517A1, “COMPOSITIONS AND METHODS FOR PROTECTING AGAINST MITOCHONDRIA COMPONENT-MEDIATED PATHOLOGY” (Cornell Research Foundation, Inc., priority 2003, published 2008)
“Also recorded” adds a separate entry of the source.

Legend:
[1] = test system: gerbil ischemia-reperfusion model; details: cited from earlier work
[2] = test system: isolated liver mitochondria; test: Four-parameter mitochondrial physiology (oxygen, Ca2+, membrane potential, swelling); type: biochemical, rat; details: 10 μM; for protection against PT induction (swelling, A660): high Ca2+ dose
Protocol: Mitochondrial physiological parameters were assessed to determine whether these heterocyclics and related compounds interfered direly with mitochondrial functions, and whether such interference might underlie their protection (e.g., respiratory inhibitors can score as protective in some assays, as can uncouplers, but neither would be optimal as a therapeutic candidate). […]; methiothepin [serotonin modulator]; clomipramine [antidepressant]).
FIG. 5 illustrates that the heterocyclic compounds delay PT induction in isolated liver mitochondria without impairing mitochondrial physiology. FIG. 5a depicts oxygen consumption measured by Clark electrode. Oxygen concentration in buffer decreases as the signal decreases. FIG. 5b depicts Ca^2+ transport measured by Ca^2+— selective electrode. The Ca^2+ in buffer increases as the signal increases. FIG. 5c depicts Δψ measured using a TPP^+ electrode. The Δψ parameter decreases as the signal increases. TPP^+ uptake determined by comparison with standard curve after correction for shift in the electrode signal is induced by the compounds examined. […] Changes in Δψ consistent with the slight increases in respiration (equivalent to approximately 5% of maximally uncoupled mitochondria) observed with some drags is likely below the limit of detection. FIG. 5d depicts mitochondrial swelling (absorbance) monitored by a light emitting diode BET) at A660. Mitochondrial are more swollen when signal decreases. Assay in 300 mM sucrose, 2.5 mM K—PO4, 3 mM HERPES, pH 7.2 and 5 mM succinate. Experiments were stopped shortly after oxygen was consumed.
Liver mitochondrial respiration was measured in 250 mM sucrose, 3 mM MgCl2, 0.5 mM EDTA, 10 mM KH2PO4 (pH 7.2). The buffer was equilibrated at 28° C. for not less than an hour before taking measurements. Respiration was initiated by adding mitochondria isolate to the oxygraph cell (0.9±0.2 mg/mL protein). State 3 respiration was initiated with ADP (˜200 μM). The substrates were added at either 5 or 10 mM for α-ketoglutarate and glutamate/malate and 10-20 mM for succinate. Respiration rates were determined using a PC-controlled Strathkelvin Instruments Limited 928 6-Channel Dissolved Oxygen System with two standard Clark-type electrodes fitted to two standard Gilson 1.7-1.8 mL oxygraph cells. Traces were analyzed using the Strathkelvin data acquisition and analysis program included with the instrument. The lines of best fit were calculated and plotted to polarographic traces using the built-in software function based on least squares regression analysis. State 3 respiration rates were calculated when stabilized, i.e., 1.0-1.5 minutes after initiating the state. Respiration before and after ADP consumption was used to calculated RCR. All experiments were carried out in triplicate. All substrates used in mitochondrial respiration experiments were dissolved in respiration buffer (see below) and brought to neutral pH.
The experimental system employed comprises a respiration chamber that can be sealed and placed in a light tight outer chamber. Electrodes and sensors are positioned in a single plane around the outside of the chamber—this system enables simultaneous measurement of oxygen uptake, membrane potential, calcium, and light scattering (absorbance). Oxygen uptake, membrane potential, and Cab are measured using Clark, TPP^+, and Ca^2+-sensitive electrodes, respectively see, Zhu, S., et al., Nature 417:74-78, 2002. A660 is measured using a diode. The chamber is water-jacketed to allow thermostabilization (15-to-1 water volume to sample volume −1 mL, closed chamber). Samples were constantly stirred using a top-mounted magnetic stir bar. Signals measured from electrodes and sensors are recorded on a computer through a commercially available L-154 card. Software has been written to enable data collection and analysis. All experiments were carried out in triplicate. Plots shown in the paper are representative.

calmodulin = calmodulin (Homo sapiens, UniProt P0DP23); test: Calmodulin-dependent calcineurin activity (pNPP hydrolysis); details: 300 μM compound
[3] = test system: rabbit models of cerebral and spinal ischemia; details: in vivo; cited from earlier work
apoptosis / PT induction = details: suggested; by reducing mitochondrial oxidative stress; cited from earlier work
[4] = test system: primary cerebrocortical neurons; test: Oxygen-glucose deprivation (OGD) of cultured primary cerebrocortical neurons; type: cell-based, mouse
Protocol: Heterocyclic-mediated protection was next examined in two models of stroke: (i) oxygen-glucose deprivation (OGD) of cultured primary cerebrocortical neurons, and; (ii) in the mouse, middle cerebral artery occlusion (MCAO)/reperfusion.
Neurotoxicity studies were conducted as previously described. […] Cerebral cortex of mouse embryos at day 15 (E15) were freed from meninges and separated from olfactory bulb and hippocampus.
OGD of primary cerebrocortical neurons is a widely used cell culture model of stroke-related pathology. […] Caspase-3 activation plays a key role in hypoxia/ischemia-mediated injury. To gam insight into the mechanism of promethazine-mediated neuroprotection, it was evaluated whether this compound could inhibit OGD-mediated caspase-3 activation.

[5] = test system: mouse middle cerebral artery occlusion (MCAO); details: in vivo
[6] = test system: PT induction in isolated rat liver mitochondria; test: High throughput spectrophotometric PT-induced swelling assay following Ca2+ challenge; type: biochemical; details: for protection against PT induction, score in the initial screen: 10 μM, blind library screen
From the text: This library was primarily composed of clinically-approved drugs that could readily be moved to late stage pre-clinical trials and then into accelerated clinical trials. […] The remainder of the library largely consisted of some analogues of these drugs, other known bioactive agents (including natural products, toxins and known inhibitors). Screening of this library was blind and was designed to identify compounds that acted independently of antioxidant activity or ability to chelate Ca^2+ (FIG. 2).
Assays were performed on mitochondria energized with succinate, glutamate/malate, or α-ketoglutarate. […] Subsequent assays (see, Table 1) repeated this approach using inducers optimized to overcome protection mediated by chelators (high C^2+ or antioxidants (high tert-butyl hydroperoxide), based on the rationale that it was unlikely to identify novel drug activities in these categories.
Each of these compounds was re-assayed against three models of PT induction and ranked according to the resistance it conferred to induction.
Bars are coded by each drug's therapeutic class. […] Compounds were assayed in triplicate at 7 concentrations (30, 10, 3, 1, 0.3, 0.1, and 0.03 μM) against three different challenges (50 μM Ca^2+/2.5 mM K—PO4, 25 μM Ca^2+/5 mM K—PO4, 25 μM Ca^2+/2.5 mM K—PO4/100 μM tert-butyl hydroperoxide). […] To address potential inaccuracies introduced by calculation of the area under the curve, protection was also assayed as percent absorbance remaining when absorbance of an unprotected sample had dropped and stabilized. […] “N” for each drug is 7 to 9. Horizontal lines show mean and mean plus one standard deviation.

phospholipase A2 (PLA2) = details: cited from earlier work
humans = details: human, in vivo; cited from earlier work
[7] = test system: ischemia-reperfusion injury in multiple models; details: cited from earlier work

CN(C)CCCN1c2ccccc2CCc2ccc(Cl)cc21 [Clomipramine]
hippocampal CA1 neuronal damage ([1]; 20 mg/kg): protect | Ca2+ transport [2]: without affecting | initial oxygen consumption prior to PT induction [2]: without affecting | resting or recovered Δψ [2]: without affecting | protection against PT induction (swelling, A660) [2]: protected

CN1CCN(CC(=O)N2c3ccccc3C(=O)Nc3cccnc32)CC1 [pirenzepine]
calmodulin activity (ratio to untreated plate controls) (calmodulin): apparent calmodulin activation

CN(C)CCCN1c2ccccc2Sc2ccc(Cl)cc21 [Chlorpromazine]
functional impairment [3]: reduced

OCCN1CCN(CCCN2c3ccccc3Sc3ccc(C(F)(F)F)cc32)CC1 [Flufenazine]
Ca2+ transport [2]: without affecting | initial oxygen consumption prior to PT induction [2]: without affecting | resting or recovered Δψ [2]: without affecting | protection against PT induction (swelling, A660) [2]: protected

CN1CCN2c3ccccc3Cc3ccccc3C2C1 (stereo not drawn) [Mianserin]
protection in the gerbil ischemia model ([1]; 5-20 mg/kg): protects

CSc1ccc2c(c1)N(CCC1CCCCN1C)c1ccccc1S2 (stereo not drawn) [Thioridazine]
PT induction (apoptosis / PT induction): delay | apoptosis (apoptosis / PT induction): inhibit

CNCCC=C1c2ccccc2CCc2ccccc21 [Nortriptyline]
OGD-mediated caspase-3 activation [4]: inhibits; also recorded: attenuated | OGD mediated cytochrome C release ([4]; Western blot): Inhibiting; also recorded: minimized | OGD cell death as measured by LDH release ([4]; nortriptyline): preventing cell death; also recorded: reduction | infarct (stroke) volume [5]: significant reduction | infarct area in coronal slices compared to the controls [5]: decreases | neurological examination following cerebral ischemia [5]: improves | neuroprotection following MCAO [5]: mediates neuroprotection

CC/C(=C(\c1ccccc1)c1ccc(OCCN(C)C)cc1)c1ccccc1 [tamoxifen]
protection against PT induction, score in the initial screen [6]: moderate

CN1CCN(CCCN2c3ccccc3Sc3ccc(C(F)(F)F)cc32)CC1 [Trifluoperazine]
phospholipase A2 (PLA2) inhibition (phospholipase A2 (PLA2)): can inhibit | tolerability in humans (humans): limited utility for long-term use in humans because of its toxicity | functional impairment [3]: reduced | protection against PT induction, score in the initial screen [6]: moderate | protection against ischemia-reperfusion injury [7]: protective

CCOC(=O)N1CCC(=C2c3ccc(Cl)cc3CCc3cccnc32)CC1 [Loratadine]
calmodulin activity (ratio to untreated plate controls) (calmodulin): apparent calmodulin activation

CSc1ccc2c(c1)C(N1CCN(C)CC1)Cc1ccccc1S2 (stereo not drawn) [Methiothepin]
Ca2+ transport [2]: without affecting | initial oxygen consumption prior to PT induction [2]: without affecting | resting or recovered Δψ [2]: without affecting | protection against PT induction (swelling, A660) [2]: protected | relative potency as PT inhibitor ([6]; ranking among the heterocyclics): approximately equivalent to promethazine in potency
